Data from US4226980A, “Novel derivatives of fortimicin B and process for preparing same” (Abbott Laboratories, priority 1978, dated 1980).
Like-named read-outs stand apart in the source and are kept apart here.

Tests used:
[1] = tested on: Klebsiella pneumniae 3020 Y60; test: antibacterial activity (MIC), resistant strain; type: cell-based; conditions: medium pH 7.2; strain "producing gentamicin" (footnote 4); unit assumed
Description: (§1) Furthermore in the following Table 3, the antibacterial activity (MIC) of the compounds are set forth. The measurement was carried out according to the Japanese Antibiotic Medicament Standard using a medium having a pH of 7.2. Numbers of the compounds in Table 3 correspond to those in Tables 1 and 2.

[2] = tested on: Escherichia coli 57R/W677; test: antibacterial activity (MIC), resistant strain; type: cell-based; conditions: medium pH 7.2; strain "producing gentamicin" (footnote 4); unit assumed
Description: as §1

[3] = tested on: Escherichia coli R19 KY-8348; test: antibacterial activity (MIC), resistant strain; type: cell-based; conditions: medium pH 7.2; strain producing gentamicin acetyltransferase; unit assumed
Description: as §1

[4] = tested on: Providencia sp. 164; test: antibacterial activity (MIC), resistant strain; type: cell-based; conditions: medium pH 7.2; strain producing gentamicin acetyltransferase (footnote 5); unit assumed
Description: as §1

[5] = tested on: Escherichia coli R18 KY-8321; test: antibacterial activity (MIC), resistant strain; type: cell-based; conditions: medium pH 7.2; strain producing gentamicin nucleotidyltransferase and neomycin phosphotransferase II; unit assumed
Description: as §1

[6] = tested on: Escherichia coli R17 Z-343; test: antibacterial activity (MIC), resistant strain; type: cell-based; conditions: medium pH 7.2; strain "producing kanamycin" (footnote 1); unit assumed
Description: as §1

[7] = tested on: Pseudomonas aeruginosa R9 KY8516; test: antibacterial activity (MIC), resistant strain; type: cell-based; conditions: medium pH 7.2; strain "producing kanamycin" (footnote 1); unit assumed
Description: as §1

[8] = tested on: Pseudomonas aeruginosa R4 KY8511; test: antibacterial activity (MIC), resistant strain; type: cell-based; conditions: medium pH 7.2; strain producing gentamicin acetyltransferase; unit assumed
Description: as §1

[9] = tested on: Escherichia coli 3100; test: antibacterial activity (MIC); type: cell-based; conditions: medium pH 7.2, Japanese Antibiotic Medicament Standard; unit assumed
Description: as §1

[10] = tested on: Providencia sp. KY3950; test: antibacterial activity (MIC); type: cell-based; conditions: medium pH 7.2, Japanese Antibiotic Medicament Standard; unit assumed
Description: as §1

[11] = tested on: Pseudomonas aeruginosa BMH#10; test: antibacterial activity (MIC); type: cell-based; conditions: medium pH 7.2, Japanese Antibiotic Medicament Standard; unit assumed
Description: as §1

[12] = tested on: Escherichia coli NIHJ-2; test: antibacterial activity (MIC); type: cell-based; conditions: medium pH 7.2, Japanese Antibiotic Medicament Standard; unit assumed
Description: as §1

[13] = tested on: Bacillus subtilis ATCC 6633; test: antibacterial activity (MIC); type: cell-based; conditions: medium pH 7.2, Japanese Antibiotic Medicament Standard; unit assumed
Description: as §1

[14] = tested on: Klebsiella pneumoniae #8045; test: antibacterial activity (MIC); type: cell-based; conditions: medium pH 7.2, Japanese Antibiotic Medicament Standard; unit assumed
Description: as §1

[15] = tested on: Shigella sonnei ATCC 9290; test: antibacterial activity (MIC); type: cell-based; conditions: medium pH 7.2, Japanese Antibiotic Medicament Standard; unit assumed
Description: as §1

[16] = tested on: Staphylococcus aureus Smith; test: antibacterial activity (MIC); type: cell-based; conditions: medium pH 7.2, Japanese Antibiotic Medicament Standard; unit assumed
Description: as §1

[17] = tested on: Staphylococcus aureus 209-p; test: antibacterial activity (MIC); type: cell-based; conditions: medium pH 7.2, Japanese Antibiotic Medicament Standard; unit assumed
Description: as §1

[18] = tested on: various microorganisms including resistant strains; conditions: earlier patents; cited from earlier work
[19] = strongly alkaline or alkaline conditions; cited from earlier work
[20] = type: physicochemical
Source text: That is, Compound I-a is almost decomposed in an alkaline solution with a pH of 10 at room temperature for 2 weeks to form compounds having low activity.

| Compound | antibacterial activity (MIC) [1] | antibacterial activity (MIC) [2] | antibacterial activity (MIC) [3] | antibacterial activity (MIC) [4] | antibacterial activity (MIC) [5] | antibacterial activity (MIC) [6] | antibacterial activity (MIC) [7] | antibacterial activity (MIC) [8] | antibacterial activity (MIC) [9] | antibacterial activity (MIC) [10] | antibacterial activity (MIC) [11] | antibacterial activity (MIC) [12] | antibacterial activity (MIC) [13] | antibacterial activity (MIC) [14] | antibacterial activity (MIC) [15] | antibacterial activity (MIC) [16] | antibacterial activity (MIC) [17] | stability under alkaline conditions (background) [19] | other results |
| --- | --- | --- | --- | --- | --- | --- | --- | --- | --- | --- | --- | --- | --- | --- | --- | --- | --- | --- | --- |
| CNC1C(O)C(OC2OC(C(C)N)CCC2N)C(N)C(O)C1OC (centres unmarked) [Compound 1, fortimicin B] | > 100 µg/mL | > 100 µg/mL | > 100 µg/mL | > 100 µg/mL | > 100 µg/mL | > 100 µg/mL | > 100 µg/mL | > 100 µg/mL | 100 µg/mL | > 100 µg/mL | > 100 µg/mL | > 100 µg/mL | 25 µg/mL | 100 µg/mL | > 100 µg/mL | 100 µg/mL | > 100 µg/mL |  | antibacterial activity (background) [18]: not as good as the other factors |
| COC1C(O)C(N)C(OC2OC(C(C)N)CCC2N)C(O)C1N(C)C(=O)CN (centres unmarked) [Compound 2, fortimicin A, reference compound] | 6.25 µg/mL | 6.25 µg/mL | > 100 µg/mL | 3.12 µg/mL | 3.12 µg/mL | 1.56 µg/mL | 12.5 µg/mL | > 100 µg/mL | 6.25 µg/mL |  | 0.78 µg/mL | 1.56 µg/mL | 0.78 µg/mL | 1.56 µg/mL | 6.25 µg/mL | 1.56 µg/mL | 0.78 µg/mL | slightly unstable | stability under strongly alkaline conditions ([20]; strongly alkaline conditions): slightly unstable |
| COC1C(O)C(N)C(OC2OC(C(C)N)CCC2N)C(O)C1N(C)C(=O)CNC(N)=O (centres unmarked) [Compound 3, fortimicin C, reference compound] | 50 µg/mL | 6.25 µg/mL | > 100 µg/mL | 25 µg/mL | 12.5 µg/mL | 3.12 µg/mL | 50 µg/mL | > 100 µg/mL | 12.5 µg/mL | 25 µg/mL | 3.12 µg/mL | 3.12 µg/mL | 3.12 µg/mL | 12.5 µg/mL | 25 µg/mL | 12.5 µg/mL | 6.25 µg/mL | slightly unstable | stability under strongly alkaline conditions [20]: slightly unstable |
| COC1C(O)C(N)C(OC2OC(C(C)N)CCC2NCCN)C(O)C1N(C)CCN (centres unmarked) [Compound 5, 4,2'-di-N-(2-aminoethyl)fortimicin B] | 25 µg/mL | 6.25 µg/mL | 25 µg/mL | 50 µg/mL | 6.25 µg/mL | 3.12 µg/mL | > 100 µg/mL | 100 µg/mL | 6.25 µg/mL | 12.5 µg/mL | 1.56 µg/mL | 3.12 µg/mL | 1.56 µg/mL | 3.12 µg/mL | 12.5 µg/mL | 1.56 µg/mL | 1.56 µg/mL |  |  |
| COC1C(O)C(N)C(OC2OC(C(C)N)CCC2NC(=O)CN)C(O)C1N(C)C[C@@H](O)CCN (stereo partly drawn) [Compound 6, 4-N-[(S)-4-amino-2-hydroxybutyl]-2'-N-glycylfortimicin B] | 6.25 µg/mL | 6.25 µg/mL | 3.12 µg/mL | 6.25 µg/mL | 3.12 µg/mL | 1.56 µg/mL | 25 µg/mL | 50 µg/mL | 6.25 µg/mL | 6.25 µg/mL | 0.78 µg/mL | 3.12 µg/mL | 0.78 µg/mL | 1.56 µg/mL | 6.25 µg/mL | 0.78 µg/mL | 1.56 µg/mL |  |  |
